Experimental data from US11464770B2, “Anticancer pharmaceutical composition” (NATIONAL CANCER CENTER, priority 2016, dated 2022).
Read-outs that look alike come from different tables or passages of the source.

Columns and labels:
[1] = test system: cervical carcinoma cell lines; assay: Cell based assay, cell viability (CellTiter-Glo), cervical carcinoma cell lines; details: Homo sapiens; HeLa cells
Description: (§1) Commercially available bladder cancer, prostate cancer, lung cancer, breast cancer, blood cancer, pancreatic cancer, colorectal cancer, brain cancer, neuroblastoma, melanoma, liver cancer, cervical carcinoma, ovarian cancer, renal cancer, and papilloma cell lines were each treated with trypsin-EDTA and cultured, followed by being seeded in each well of a 96 well plate. […] The treated cells were additionally cultured for 72 hours, and cell viability was measured by using an ATP detection method (CellTiter-Glo® Luminescent Cell Viability Assay, Promega).

[2] = test system: blood cancer cell lines (e.g. HL-60, Jurkat, Raji, Ramos, Daudi, MOLT-4); assay: Cell based assay, cell viability (CellTiter-Glo), blood cancer cell lines; details: Homo sapiens
Description: (§2) Commercially available bladder cancer, prostate cancer, lung cancer, breast cancer, blood cancer, pancreatic cancer, colorectal cancer, brain cancer, neuroblastoma, melanoma, liver cancer, cervical carcinoma, ovarian cancer, renal cancer, and papilloma cell lines were each treated with trypsin-EDTA and cultured, followed by being seeded in each well of a 96 well plate. After 24 hours of treatment at constant temperature, the respective cells were treated with the candidate compound so that a final concentration became 0 to 2 μM. The treated cells were additionally cultured for 72 hours, and cell viability was measured by using an ATP detection method (CellTiter-Glo® Luminescent Cell Viability Assay, Promega).

renal cancer cell lines = assay: Cell based assay, cell viability (CellTiter-Glo), renal cancer cell lines; details: Homo sapiens; ACHN cells
Description: as §2

[3] = test system: pancreatic cancer cell lines (e.g. MIA PaCa-2); assay: Cell based assay, cell viability (CellTiter-Glo), pancreatic cancer cell lines; details: Homo sapiens
Description: as §2

brain cancer cell lines = assay: Cell based assay, cell viability (CellTiter-Glo), brain cancer cell lines; details: Homo sapiens
Description: as §1

[4] = MV4-11, blood cancer cell line MV-4-11, 72 hours, read-out: IC50, MV-4-11
[5] = blood cancer cell line Daudi, 72 hours, read-out: IC50, Daudi
[6] = blood cancer cell line HL-60, 72 hours, read-out: IC50, HL-60
[7] = blood cancer cell line Jurkat, 72 hours, read-out: IC50, Jurkat
[8] = blood cancer cell line MOLT-4, 72 hours, read-out: IC50, MOLT-4
[9] = blood cancer cell line Raji, 72 hours, read-out: IC50, Raji
[10] = blood cancer cell line Ramos (RA 1), 72 hours, read-out: IC50, Ramos (RA 1)
[11] = blood cancer cell line U-937, 72 hours, read-out: IC50, U-937
[12] = pancreatic cancer cell line AsPC-1, 72 hours, read-out: IC50, AsPC-1
[13] = pancreatic cancer cell line BxPC-3, 72 hours, read-out: IC50, BxPC-3
[14] = pancreatic cancer cell line CFPAC-1, 72 hours, read-out: IC50, CFPAC-1
[15] = pancreatic cancer cell line Capan-1, 72 hours, read-out: IC50, Capan-1
[16] = pancreatic cancer cell line Capan-2, 72 hours, read-out: IC50, Capan-2
[17] = pancreatic cancer cell line MIA PaCa-2, 72 hours, read-out: IC50, MIA PaCa-2
[18] = pancreatic cancer cell line PANC-1, 72 hours, read-out: IC50, PANC-1
[19] = U138-MG, U-138 MG cell line, read-out: IC50, Brain cancer cell line U-138 MG
[20] = T98G cell line, read-out: IC50, Brain cancer cell line T98G
[21] = U-251 MG cell line, read-out: IC50, Brain cancer cell line U-251 MG

SMILES	IC50 [1] [nM]	IC50 [2, 4] [nM]	IC50 [2, 5] [nM]	IC50 [2, 6] [nM]	IC50 [2, 7] [nM]	IC50 [2, 8] [nM]	IC50 [2, 9] [nM]	IC50 [2, 10] [nM]	IC50 [2, 11] [nM]	IC50 (renal cancer cell lines) [nM]	IC50 [3, 12] [nM]	IC50 [3, 13] [nM]	IC50 [3, 14] [nM]	IC50 [3, 15] [nM]	IC50 [3, 16] [nM]	IC50 [3, 17] [nM]	IC50 [3, 18] [nM]	IC50 (brain cancer cell lines; [19]) [nM]	IC50 (brain cancer cell lines; [20]) [nM]	IC50 (brain cancer cell lines; [21]) [nM]
CC(=O)c1c(Sc2ccc(Br)cc2)[nH]c2c(Br)ccc(Cl)c2c1=O [Compound 16, 3-acetyl-8-bromo-2-((4-bromophenyl)thio)-5-chloroquinolin-4(1H)-one]	> 10000	> 2000	> 2000	> 2000	> 2000	> 2000	> 2000	> 2000	> 2000	> 2000	> 2000	> 2000	> 10000	> 2000	> 2000	> 2000	> 2000	> 10000	> 10000	> 2000
CC(=O)c1c([S+]([O-])c2ccc(Br)cc2)[nH]c2c(Br)ccc(Cl)c2c1=O (centres unmarked) [Compound 17, 3-acetyl-8-bromo-2-((4-bromophenyl)sulfinyl)-5-chloroquinolin-4(1H)-one]	> 10000	> 2000	> 2000	> 2000	> 2000	> 2000	> 2000	> 2000	> 2000	> 2000	> 2000	> 2000	> 10000	> 2000	> 2000	> 2000	> 2000	> 10000	> 10000	> 2000
CSc1c(C(C)=O)c(=O)c2c(Cl)ccc(Br)c2n1C(C)=O [Compound 18, 1,1′-(8-bromo-5-chloro-2-(methylthio)-4-oxoquinoline-1,3(4H)-diyl)bis(ethan-1-one)]	> 10000	> 2000	> 2000	> 2000	> 2000	> 2000	> 2000	> 2000	> 2000	> 2000	> 2000	> 2000	> 10000	> 2000	> 2000	> 2000	> 2000	> 10000	> 10000	> 2000
CC(=O)c1c([S+](C)[O-])n(C(C)=O)c2c(Br)ccc(Cl)c2c1=O (centres unmarked) [Compound 19, 1,1′-(8-bromo-5-chloro-2-(methylsulfinyl)-4-oxoquinoline-1,3(4H)-diyl)bis(ethan-1-one)]	> 10000	> 2000	> 2000	> 2000	> 2000	> 2000	> 2000	> 2000	> 2000	> 2000	> 2000	> 2000	> 10000	> 2000	> 2000	> 2000	> 2000	> 10000	> 10000	> 2000
CC(=O)c1c([S+]([O-])Cc2ccccc2)n(C(=O)c2ccc(Br)cc2)c2c(Br)ccc(Cl)c2c1=O (centres unmarked) [Compound 20, 3-acetyl-2-(benzylsulfinyl)-8-bromo-1-(4-bromobenzoyl)-5-chloroquinolin-4(1H)-one]	> 10000	> 2000	> 2000	> 2000	> 2000	> 2000	1180	1510	> 2000	> 2000	> 2000	> 2000	> 10000	> 2000	> 2000	> 2000	> 2000	> 10000	> 10000	> 2000
CC(=O)c1c(S(C)(=O)=O)n(C(=O)c2ccc(Br)cc2)c2c(Br)ccc(Cl)c2c1=O [Compound 21, 3-acetyl-8-bromo-1-(4-bromobenzoyl)-5-chloro-2-(methylsulfonyl)quinolin-4(1H)-one]	> 10000	> 2000	> 2000	> 2000	> 2000	> 2000	> 2000	> 2000	> 2000	> 2000	> 2000	> 2000	> 10000	> 2000	> 2000	> 2000	> 2000	> 10000	> 10000	> 2000
CC(=O)c1c([S+](C)[O-])n(Cc2ccc(F)c(Cl)c2)c2c(Br)ccc(Cl)c2c1=O (centres unmarked) [Compound 22, 3-acetyl-8-bromo-5-chloro-1-(3-chloro-4-fluorobenzyl)-2-(methylsulfinyl)quinolin-4(1H)-one]	> 10000	> 2000	> 2000	> 2000	> 2000	> 2000	> 2000	> 2000	> 2000	> 2000	> 2000	> 2000	> 10000	> 2000	> 2000	> 2000	> 2000	> 10000	> 10000	> 2000
CC(=O)c1c(SCc2ccccc2)n(C(=O)c2ccc(Br)cc2)c2c(Br)ccc(Cl)c2c1=O [Compound 23, 3-acetyl-2-(benzylthio)-8-bromo-1-(4-bromobenzoyl)-5-chloroquinolin-4(1H)-one]	> 10000	> 2000	> 2000	> 2000	> 2000	> 2000	> 2000	> 2000	> 2000	> 2000	> 2000	> 2000	> 10000	> 2000	> 2000	> 2000	> 2000	> 10000	> 10000	> 2000
CC(=O)c1c(SC(C)C)[nH]c2c(Br)ccc(Cl)c2c1=O [Compound 24, 3-acetyl-8-bromo-5-chloro-2-(isopropylthio)quinolin-4(1H)-one]	> 10000	> 2000	> 2000	> 2000	> 2000	> 2000	> 2000	> 2000	> 2000	> 2000	> 2000	> 2000	> 10000	> 2000	> 2000	> 2000	> 2000	> 10000	> 10000	> 2000
CC(=O)c1c([S+]([O-])C(C)C)[nH]c2c(Br)ccc(Cl)c2c1=O (centres unmarked) [Compound 25, 3-acetyl-8-bromo-5-chloro-2-(isopropylsulfinyl)quinolin-4(1H)-one]	> 10000	> 2000	> 2000	> 2000	> 2000	> 2000	> 2000	> 2000	> 2000	> 2000	> 2000	> 2000	> 10000	> 2000	> 2000	> 2000	> 2000	> 10000	> 10000	> 2000
